Assay type in all cases: functional
Assay [1] concerns Staphylococcus epidermidis. Description: Antibacterial activity against methicillin-sensitive Staphylococcus epidermidis ATCC 12228 by agar method.
The test system of assay [2] is Staphylococcus aureus. Briefly: Antibacterial activity against methicillin-resistant Staphylococcus aureus ATCC 33591 by agar method.
In assay [3] the test system is Acinetobacter baumannii. Description: Antibacterial activity against carbapenem-resistant Acinetobacter baumannii 16-33 by agar method.
Assay [4] has as its system Escherichia coli. Description: Antibacterial activity against ESBLs negative Escherichia coli ATCC 25922 by agar method.
Assay [5] concerns Enterococcus faecalis. Briefly: Antibacterial activity against Vancomycin-sensitive Enterococcus faecalis ATCC 29212 by agar method.
Assay [6] deals with Escherichia coli. Briefly: Antibacterial activity against ESBLs positive Escherichia coli ATCC 35218 by agar method.
In assay [7] the test system is Staphylococcus aureus. Description: Antibacterial activity against methicillin-sensitive Staphylococcus aureus ATCC 29213 by agar method.
The subject of assay [8] is Enterococcus faecalis. Description: Antibacterial activity against vancomycin-resistant Enterococcus faecalis ATCC 51299 by agar method.
Assay [9] relates to Escherichia coli. Briefly: Antibacterial activity against NDM-1 positive Escherichia coli ATCC 2469 by agar method.
Assay [10] relates to Staphylococcus epidermidis. Briefly: Antibacterial activity against methicillin-resistant Staphylococcus epidermidis 16-5 by agar method.

The record followed here is ChEMBL document CHEMBL4814028, “Design, synthesis, and antibacterial evaluation of PFK-158 derivatives as potent agents against drug-resistant bacteria” (Bioorg Med Chem Lett, 2021).

In brackets after ≈: the same amount, converted by molar mass.

One may read the MIC as the smallest concentration in the dilution series that meets the test's criterion for growth inhibition. With `O=C(/C=C/c1ccc2ccccc2c1)c1ccncc1`, the MIC in [1], in assay [2], in assay [3], in [4], in assay [5] and in assay [6] was above 128 µg/mL each time. The MIC in assay [7], in assay [8], in assay [9] and in assay [10] was above 128 µg/mL each time.
For the compound `C[n+]1ccc(C(=O)/C=C/c2ccc3ccccc3c2)cc1.[I-]`, the MIC in [1] was 128 µg/mL; in [2] it was 64 µg/mL; in assay [3], above 128 µg/mL; in assay [4], above 128 µg/mL; in assay [5], above 128 µg/mL; in assay [6], above 128 µg/mL. The MIC was 128 µg/mL in assay [7], above 128 µg/mL in assay [8], above 128 µg/mL in assay [9] and 128 µg/mL in assay [10].
Take `O=C(/C=C/c1cnc2ccccc2c1)c1cccnc1`: the MIC in assay [1] is 16 µg/mL (≈ 61.5 µM); in assay [2], 32 µg/mL (≈ 123 µM); in assay [3] it was 128 µg/mL (≈ 492 µM); in assay [4] it was above 128 µg/mL; in assay [5], 32 µg/mL (≈ 123 µM); in assay [6], above 128 µg/mL. In addition, the MIC in assay [7] is 16 µg/mL (≈ 61.5 µM); in [8] it was 32 µg/mL (≈ 123 µM); in assay [9] it was above 128 µg/mL; in assay [10], 32 µg/mL (≈ 123 µM).
As for `C[n+]1cccc(C(=O)/C=C/c2ccc3ccc(C(F)(F)F)cc3n2)c1.[I-]`, the MIC in [1] was 64 µg/mL; in assay [2], 32 µg/mL; in assay [3], above 128 µg/mL; in assay [4], above 128 µg/mL; in assay [5], 128 µg/mL; in assay [6] it was above 128 µg/mL. For the same compound, the MIC was 64 µg/mL in assay [7], 128 µg/mL in [8], above 128 µg/mL in [9] and 64 µg/mL in assay [10].
Consider `O=C(/C=C/c1ccc2ccc(C(F)(F)F)cc2n1)c1ccccc1`, for which the MIC in assay [1], in [2], in assay [3], in assay [4], in [5] and in [6] was above 128 µg/mL each time. In addition, the MIC in assay [7], in [8], in assay [9] and in [10] was above 128 µg/mL in each case.
In the case of `O=C(/C=C/c1ccc2ncccc2c1)c1ccccn1`, the MIC was 8 µg/mL (≈ 30.7 µM) in assay [1]; 8 µg/mL (≈ 30.7 µM) in assay [2]; 128 µg/mL (≈ 492 µM) in assay [3]; above 128 µg/mL in assay [4]; 32 µg/mL (≈ 123 µM) in assay [5]; above 128 µg/mL in assay [6]. The MIC in assay [7] is 8 µg/mL (≈ 30.7 µM); in assay [8], 32 µg/mL (≈ 123 µM); in assay [9], above 128 µg/mL; in assay [10], 8 µg/mL (≈ 30.7 µM).
`C[C@H]1COc2c(N3CCN(C)CC3)c(F)cc3c(=O)c(C(=O)O)cn1c23.C[C@H]1COc2c(N3CCN(C)CC3)c(F)cc3c(=O)c(C(=O)O)cn1c23.O` [LEVOFLOXACIN]: the MIC in [1] stood at 0.12 µg/mL; in assay [2], 0.12 µg/mL; in assay [3], 2 µg/mL; in assay [5] it was 1 µg/mL; in assay [7] it was 0.12 µg/mL; in assay [8] it was 0.5 µg/mL. For the same compound, the MIC in assay [9] was found to be 16 µg/mL; in assay [10], 8 µg/mL.
For `COCOc1ccc(C(=O)/C=C/c2ccc3ccccc3n2)cc1OCOC`, the MIC is 4 µg/mL (≈ 10.5 µM) in assay [1]; 8 µg/mL (≈ 21.1 µM) in assay [2]; above 128 µg/mL in assay [3]; above 128 µg/mL in assay [4]; above 128 µg/mL in [5]; above 128 µg/mL in assay [6]. In addition, the MIC in assay [7] is 8 µg/mL (≈ 21.1 µM); in [8], above 128 µg/mL; in assay [9] it was above 128 µg/mL; in [10], 8 µg/mL (≈ 21.1 µM).
For the compound `O=C(/C=C/c1cccnc1)c1ccc2ccc(C(F)(F)F)cc2n1`, the MIC in [1] is above 32 µg/mL; in [2], 32 µg/mL (≈ 97.5 µM); in assay [3], above 32 µg/mL; in assay [4], above 32 µg/mL; in assay [5], above 32 µg/mL; in [6], above 32 µg/mL. In addition, the MIC in assay [7], in [8], in assay [9] and in [10] was above 32 µg/mL throughout.
For `O=C(/C=C/c1ccncc1)c1ccc2ccc(C(F)(F)F)cc2n1`, the MIC was above 32 µg/mL in assay [1]; 16 µg/mL (≈ 48.7 µM) in [2]; above 32 µg/mL in assay [3]; above 32 µg/mL in assay [4]; above 32 µg/mL in assay [5]; above 32 µg/mL in assay [6]. Further, the MIC in [7], in [8], in assay [9] and in assay [10] was above 32 µg/mL each time.
Take `O=C(/C=C/c1ccc2ccccc2n1)c1ccc(O)c(O)c1`: the MIC in assay [1] was 16 µg/mL (≈ 54.9 µM); in assay [2] it was 32 µg/mL (≈ 110 µM); in [3], above 64 µg/mL; in assay [4] it was above 64 µg/mL; in [5], above 64 µg/mL; in [6], above 64 µg/mL. In addition, the MIC in assay [7] was 32 µg/mL (≈ 110 µM); in assay [8] it was above 64 µg/mL; in [9], above 64 µg/mL; in assay [10], 32 µg/mL (≈ 110 µM).
Consider `O=C(/C=C/c1ccc2ccccc2c1)c1ccccn1`, for which the minimal inhibitory concentration (MIC) in assay [1], in assay [2], in assay [3], in assay [4], in assay [5] and in assay [6] was above 128 µg/mL each time. In addition, the MIC in assay [7], in assay [8], in assay [9] and in assay [10] was above 128 µg/mL in each case.
Take `C[n+]1cccc(C(=O)/C=C/c2ccc3ccccc3c2)c1.[I-]`: the MIC in [1], in assay [2], in assay [3], in assay [4], in assay [5] and in assay [6] was above 128 µg/mL throughout. Also, the MIC in [7], in assay [8], in assay [9] and in [10] was above 128 µg/mL each time.
For the compound `O=C(/C=C/c1ccc2ccccc2c1)c1cccnc1`, the MIC in [1], in assay [2], in [3], in assay [4], in [5] and in [6] was above 128 µg/mL each time. Besides, the MIC in assay [7], in [8], in assay [9] and in assay [10] was above 128 µg/mL throughout.
In the case of `COCOc1ccc(C(=O)/C=C/c2ccc3ccc(C(F)(F)F)cc3n2)cc1OCOC`, the MIC in assay [1], in [2], in [3], in assay [4], in assay [5] and in assay [6] was above 64 µg/mL in each case. Moreover, the MIC in assay [7], in [8], in assay [9] and in assay [10] was above 64 µg/mL each time.
Turning to `O=C(/C=C/c1ccncc1)c1ccc2ccccc2c1`, the MIC in assay [1] is 4 µg/mL (≈ 15.4 µM); in [2], 4 µg/mL (≈ 15.4 µM); in assay [3], above 128 µg/mL; in assay [4], above 128 µg/mL; in [5], above 128 µg/mL; in assay [6], above 128 µg/mL. Also, the MIC in assay [7] was 8 µg/mL (≈ 30.9 µM); in assay [8] it was above 128 µg/mL; in assay [9] it was above 128 µg/mL; in [10], 8 µg/mL (≈ 30.9 µM).
Consider `O=C(/C=C/c1ccc2ccc(C(F)(F)F)cc2n1)c1ccc2c(c1)OCO2`, for which the MIC in [1], in [2], in assay [3], in assay [4], in assay [5] and in assay [6] was above 128 µg/mL in each case. The MIC in assay [7], in [8], in assay [9] and in assay [10] was above 128 µg/mL in each case.
Consider `O=C(/C=C/c1cccnc1)c1ccc2ccccc2c1`, for which the MIC is 4 µg/mL (≈ 15.4 µM) in assay [1]; 8 µg/mL (≈ 30.9 µM) in assay [2]; above 128 µg/mL in assay [3]; above 128 µg/mL in assay [4]; above 128 µg/mL in assay [5]; above 128 µg/mL in assay [6]. Also, the MIC in assay [7] is 8 µg/mL (≈ 30.9 µM); in assay [8], above 128 µg/mL; in assay [9], above 128 µg/mL; in assay [10] it was 16 µg/mL (≈ 61.7 µM).
In the case of `C[n+]1cccc(/C=C/C(=O)c2ccc3ccccc3c2)c1.[I-]`, the MIC was 64 µg/mL in assay [1]; 128 µg/mL in assay [2]; above 128 µg/mL in assay [3]; above 128 µg/mL in [4]; above 128 µg/mL in assay [5]; above 128 µg/mL in [6]. Also, the MIC is 128 µg/mL in assay [7], above 128 µg/mL in assay [8], above 128 µg/mL in assay [9] and above 128 µg/mL in assay [10].
Turning to `O=C(/C=C/c1ccc2ccccc2n1)c1ccc2c(c1)OCO2`, the minimal inhibitory concentration (MIC) in assay [1], in assay [2], in assay [3], in [4], in assay [5] and in assay [6] was above 128 µg/mL throughout. Further, the MIC in assay [7], in [8], in [9] and in assay [10] was above 128 µg/mL throughout.
Take `O=C(/C=C/c1ccc2ncccc2c1)c1cccnc1`: the MIC in assay [1] is 8 µg/mL (≈ 30.7 µM); in assay [2], 16 µg/mL (≈ 61.5 µM); in assay [3], 128 µg/mL (≈ 492 µM); in [4], above 128 µg/mL; in assay [5], 32 µg/mL (≈ 123 µM); in assay [6], above 128 µg/mL. Also, the MIC is 16 µg/mL (≈ 61.5 µM) in assay [7], 32 µg/mL (≈ 123 µM) in assay [8], above 128 µg/mL in assay [9] and 8 µg/mL (≈ 30.7 µM) in assay [10].
For `O=C(/C=C/c1cnc2ccccc2c1)c1ccncc1`, the MIC in [1] was 8 µg/mL (≈ 30.7 µM); in assay [2] it was 8 µg/mL (≈ 30.7 µM); in assay [3], 128 µg/mL (≈ 492 µM); in assay [4] it was above 128 µg/mL; in assay [5] it was 32 µg/mL (≈ 123 µM); in assay [6], above 128 µg/mL. Further, the MIC was 8 µg/mL (≈ 30.7 µM) in assay [7], 16 µg/mL (≈ 61.5 µM) in assay [8], above 128 µg/mL in [9] and 8 µg/mL (≈ 30.7 µM) in assay [10].
